This assay has as its target Carbonic anhydrase 9 (Homo sapiens, UniProt Q16790). The assay is described as follows: Inhibition of human carbonic anhydrase-9 by stopped-flow CO2 hydration assay.
The Ki is the equilibrium dissociation constant of an inhibitor or competing ligand from its target. Low readings indicate a stronger hold on the target, high ones a looser hold on the target. Regarding `CC(=O)O[C@@H]1[C@@H](OC(C)=O)[C@H](n2cc(-c3ccc(S(N)(=O)=O)cc3)nn2)O[C@H](COP2(=O)OCc3ccccc3O2)[C@H]1OC(C)=O` (stereo not given in full), the affinity corresponds to a Ki of 84.3 nM. In other words, the double-digit nanomolar range.

Turning to `CC(=O)O[C@@H]1[C@@H](OC(C)=O)[C@H](n2cc(-c3ccc(S(N)(=O)=O)cc3)nn2)O[C@H](COP(=O)(OCCSC(=O)C(C)(C)C)OCCSC(=O)C(C)(C)C)[C@H]1OC(C)=O`, the Ki came to 135 nM. This Ki lies about 1.6-fold higher than the previous one.

For the molecule `CC(=O)O[C@@H]1[C@@H](OC(C)=O)[C@H](S(N)(=O)=O)O[C@H](COP(=O)(OCCSC(=O)C(C)(C)C)OCCSC(=O)C(C)(C)C)[C@H]1OC(C)=O`, the affinity corresponds to a Ki of 154 nM.

Regarding `NS(=O)(=O)c1ccc(-c2cn([C@@H]3O[C@H](COP(=O)(O)O)[C@@H](O)[C@H](O)[C@H]3O)nn2)cc1`, the Ki came to 248 nM.

In turn, `NS(=O)(=O)[C@@H]1O[C@H](COP(=O)(O)O)[C@@H](O)[C@H](O)[C@H]1O` had a Ki of 213 nM.

The values are drawn from ChEMBL document CHEMBL3612044, “Phosphate Chemical Probes Designed for Location Specific Inhibition of Intracellular Carbonic Anhydrases” (J Med Chem, 2015).
